From PubChem BioAssay (NCI)
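At the GI50, growth is halved. At the TGI there is no net growth.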

Tests used:
Assay in all cases: NCI anticancer screen, dose series, 384-well format
[1] = test system: 786-0 renal
[2] = test system: A498 renal
[3] = test system: A549 NSCLC
[4] = test system: ACHN renal
[5] = test system: BT-549 breast
[6] = test system: CAKI-1 renal
[7] = test system: CCRF-CEM leukemia
[8] = test system: COLO 205 colon
[9] = test system: DU-145 prostate
[10] = test system: EKVX NSCLC
[11] = test system: HCC-2998 colon
[12] = test system: HCT-116 colon
[13] = test system: HCT-15 colon
[14] = test system: HL-60(TB) leukemia
[15] = test system: HOP-62 NSCLC
[16] = test system: HOP-92 NSCLC
[17] = test system: HS 578T breast
[18] = test system: HT29 colon
[19] = test system: IGROV1 ovarian
[20] = test system: KM12 colon
[21] = test system: LOX IMVI melanoma
[22] = test system: M14 melanoma
[23] = test system: MALME-3M melanoma
[24] = test system: MCF7 breast
[25] = test system: MDA-MB-231 breast
[26] = test system: MDA-MB-435 melanoma
[27] = test system: MDA-MB-468 breast
[28] = test system: MOLT-4 leukemia
[29] = test system: NCI-H226 lung
[30] = test system: NCI-H23 lung
[31] = test system: NCI-H322M lung
[32] = test system: NCI-H460 NSCLC
[33] = test system: NCI-H522 lung
[34] = test system: NCI/ADR-RES ovarian
[35] = test system: OVCAR-3 ovarian
[36] = test system: OVCAR-4 ovarian
[37] = test system: OVCAR-5 ovarian
[38] = test system: OVCAR-8 ovarian
[39] = test system: PC-3 prostate
[40] = test system: RPMI-8226 leukemia
[41] = test system: RXF 393 renal
[42] = test system: SF-268 CNS
[43] = test system: SF-295 CNS
[44] = test system: SF-539 CNS
[45] = test system: SK-MEL-28 melanoma
[46] = test system: SK-MEL-5 melanoma
[47] = test system: SK-OV-3 ovarian
[48] = test system: SN12C renal
[49] = test system: SNB-19 CNS
[50] = test system: SNB-75 CNS
[51] = test system: SR leukemia
[52] = test system: SW-620 colon
[53] = test system: T-47D breast
[54] = test system: TK-10 renal
[55] = test system: U251 glioblastoma
[56] = test system: UACC-257 melanoma
[57] = test system: UACC-62 melanoma
[58] = test system: UO-31 renal
[59] = test system: K-562 leukemia

CN1CC[C@@H](NC(=O)Nc2ccc(C#N)cc2)C[C@@H]1c1nc2ccccc2[nH]1
GI50 [1]: 40.4 µM
TGI [1]: > 100 µM
GI50 [2]: > 85.2 µM
TGI [2]: > 100 µM
GI50 [3]: > 87.9 µM
TGI [3]: > 100 µM
GI50 [4]: > 84.7 µM
TGI [4]: > 100 µM
GI50 [5]: > 49.4 µM
TGI [5]: > 93.7 µM
GI50 [6]: > 100 µM
TGI [6]: > 100 µM
GI50 [7]: 74.7 µM
TGI [7]: > 100 µM
GI50 [8]: > 85.1 µM
TGI [8]: > 100 µM
GI50 [9]: 73.8 µM
TGI [9]: > 100 µM
GI50 [10]: > 93.7 µM
TGI [10]: > 100 µM
GI50 [11]: 47.7 µM
TGI [11]: > 100 µM
GI50 [12]: 61.2 µM
TGI [12]: > 100 µM
GI50 [13]: > 87.8 µM
TGI [13]: > 100 µM
GI50 [14]: > 87.7 µM
TGI [14]: > 100 µM
GI50 [15]: > 100 µM
TGI [15]: > 100 µM
GI50 [16]: 39.5 µM
TGI [16]: 97.4 µM
GI50 [17]: > 60 µM
TGI [17]: > 100 µM
GI50 [18]: 69.3 µM
TGI [18]: > 100 µM
GI50 [19]: 75.1 µM
TGI [19]: > 100 µM
GI50 [20]: > 100 µM
TGI [20]: > 100 µM
GI50 [21]: > 100 µM
TGI [21]: > 100 µM
GI50 [22]: > 100 µM
TGI [22]: > 100 µM
GI50 [23]: 24.4 µM
TGI [23]: > 61.4 µM
GI50 [24]: > 72.1 µM
TGI [24]: > 100 µM
GI50 [25]: 61.4 µM
TGI [25]: > 100 µM
GI50 [26]: > 100 µM
TGI [26]: > 100 µM
GI50 [27]: 32.9 µM
TGI [27]: > 95.9 µM
GI50 [28]: 18.2 µM
TGI [28]: 36.4 µM
GI50 [29]: > 59.6 µM
TGI [29]: > 100 µM
GI50 [30]: > 75.2 µM
TGI [30]: > 100 µM
GI50 [31]: > 100 µM
TGI [31]: > 100 µM
GI50 [32]: > 100 µM
TGI [32]: > 100 µM
GI50 [33]: > 79.8 µM
TGI [33]: > 100 µM
GI50 [34]: > 100 µM
TGI [34]: > 100 µM
GI50 [35]: > 67.4 µM
TGI [35]: > 100 µM
GI50 [36]: 92.4 µM
TGI [36]: > 100 µM
GI50 [37]: > 87.8 µM
TGI [37]: > 100 µM
GI50 [38]: > 100 µM
TGI [38]: > 100 µM
GI50 [39]: > 100 µM
TGI [39]: > 100 µM
GI50 [40]: 54.2 µM
TGI [40]: > 100 µM
GI50 [41]: > 46.8 µM
TGI [41]: > 86.7 µM
GI50 [42]: > 86.7 µM
TGI [42]: > 100 µM
GI50 [43]: > 80.7 µM
TGI [43]: > 100 µM
GI50 [44]: > 100 µM
TGI [44]: > 100 µM
GI50 [45]: > 82.8 µM
TGI [45]: > 100 µM
GI50 [46]: 18.2 µM
TGI [46]: > 100 µM
GI50 [47]: > 100 µM
TGI [47]: > 100 µM
GI50 [48]: > 100 µM
TGI [48]: > 100 µM
GI50 [49]: > 100 µM
TGI [49]: > 100 µM
GI50 [50]: > 58.6 µM
TGI [50]: > 95.9 µM
GI50 [51]: 23.4 µM
TGI [51]: 65.2 µM
GI50 [52]: > 100 µM
TGI [52]: > 100 µM
GI50 [53]: 37.9 µM
TGI [53]: > 100 µM
GI50 [54]: > 100 µM
TGI [54]: > 100 µM
GI50 [55]: > 100 µM
TGI [55]: > 100 µM
GI50 [56]: > 89.3 µM
TGI [56]: > 100 µM
GI50 [57]: > 61.8 µM
TGI [57]: > 100 µM
GI50 [58]: > 88.5 µM
TGI [58]: > 100 µM

Cc1csc(-c2nnc(Nc3ccc(Oc4ncccc4-c4ccnc(N)n4)cc3)c3ccccc23)c1
GI50 [1]: 2.71 µM
TGI [1]: > 100 µM
GI50 [2]: 0.253 µM
TGI [2]: > 100 µM
GI50 [3]: < 0.01 µM
TGI [3]: > 100 µM
GI50 [4]: 0.878 µM
TGI [4]: > 100 µM
GI50 [5]: 0.191 µM
TGI [5]: > 100 µM
GI50 [6]: 0.682 µM
TGI [6]: > 100 µM
GI50 [7]: < 0.01 µM
TGI [7]: < 0.01 µM
GI50 [8]: < 0.01 µM
TGI [8]: < 0.01 µM
GI50 [9]: 2.1 µM
TGI [9]: > 100 µM
GI50 [10]: 0.918 µM
TGI [10]: > 100 µM
GI50 [11]: 1.44 µM
TGI [11]: 3.53 µM
GI50 [12]: 0.0331 µM
TGI [12]: > 100 µM
GI50 [13]: 0.586 µM
TGI [13]: > 100 µM
GI50 [14]: < 0.01 µM
TGI [14]: 1.11 µM
GI50 [15]: 0.0894 µM
TGI [15]: > 100 µM
GI50 [16]: 1.96 µM
TGI [16]: 43.3 µM
GI50 [17]: < 0.01 µM
TGI [17]: 17.6 µM
GI50 [18]: 0.271 µM
TGI [18]: 2.95 µM
GI50 [19]: 1.54 µM
TGI [19]: > 100 µM
GI50 [59]: 0.552 µM
TGI [59]: > 100 µM
GI50 [20]: 1.69 µM
TGI [20]: > 100 µM
GI50 [21]: 0.187 µM
TGI [21]: > 100 µM
GI50 [22]: 0.0995 µM
TGI [22]: 3.08 µM
GI50 [23]: 1.51 µM
TGI [23]: 6.12 µM
GI50 [24]: 0.547 µM
TGI [24]: 13.1 µM
GI50 [25]: 2.34 µM
TGI [25]: > 100 µM
GI50 [26]: 1.81 µM
TGI [26]: > 100 µM
GI50 [27]: < 0.01 µM
TGI [27]: < 0.01 µM
GI50 [28]: < 0.01 µM
TGI [28]: < 0.01 µM
GI50 [29]: 3.25 µM
TGI [29]: > 100 µM
GI50 [30]: 1.2 µM
TGI [30]: 16.3 µM
GI50 [31]: 4.92 µM
TGI [31]: > 100 µM
GI50 [32]: < 0.01 µM
TGI [32]: 1.29 µM
GI50 [33]: 0.0121 µM
TGI [33]: 4.59 µM
GI50 [34]: 0.166 µM
TGI [34]: > 100 µM
GI50 [35]: 0.0536 µM
TGI [35]: > 100 µM
GI50 [36]: 5.32 µM
TGI [36]: > 100 µM
GI50 [37]: 7.21 µM
TGI [37]: > 100 µM
GI50 [38]: 1.34 µM
TGI [38]: > 100 µM
GI50 [39]: 4.05 µM
TGI [39]: > 100 µM
GI50 [40]: 0.0101 µM
TGI [40]: 2.47 µM
GI50 [41]: < 0.01 µM
TGI [41]: 5.03 µM
GI50 [42]: < 0.01 µM
TGI [42]: 0.0564 µM
GI50 [43]: 0.0517 µM
TGI [43]: > 100 µM
GI50 [44]: 0.141 µM
TGI [44]: > 100 µM
GI50 [45]: 1.51 µM
TGI [45]: 9.78 µM
GI50 [46]: 0.976 µM
TGI [46]: > 100 µM
GI50 [47]: 3.82 µM
TGI [47]: > 100 µM
GI50 [48]: 1.13 µM
TGI [48]: > 100 µM
GI50 [49]: 19.6 µM
TGI [49]: > 100 µM
GI50 [50]: 5.92 µM
TGI [50]: > 100 µM
GI50 [52]: 0.181 µM
TGI [52]: 3.13 µM
GI50 [53]: 1.44 µM
TGI [53]: 4.88 µM
GI50 [54]: 1.89 µM
TGI [54]: > 100 µM
GI50 [55]: 2.91 µM
TGI [55]: > 100 µM
GI50 [56]: 1.48 µM
TGI [56]: 43.2 µM
GI50 [57]: 0.202 µM
TGI [57]: 5.22 µM
GI50 [58]: 2.42 µM
TGI [58]: > 100 µM
